The numbers were not newly measured in patent publication US11103547B2, “Methods for disrupting biofilms” (priority 2016, dated 2021), which cites them from elsewhere.

This data set relates to MRSA biofilm. To be noted: shown previously; positive control.

Consider `CCCCCCCCCC(=O)N[C@@H](Cc1c[nH]c2ccccc12)C(=O)N[C@H](CC(N)=O)C(=O)N[C@@H](CC(=O)O)C(=O)N[C@@H]1C(=O)NCC(=O)N[C@@H](CCCN)C(=O)N[C@@H](CC(=O)O)C(=O)N[C@H](C)C(=O)N[C@@H](CC(=O)O)C(=O)NCC(=O)N[C@H](CO)C(=O)N[C@@H]([C@H](C)CC(=O)O)C(=O)N[C@@H](CC(=O)c2ccccc2N)C(=O)O[C@@H]1C` [Daptomycin], for which the “disruption of biomass biofilm of MRSA” value is listed as “disrupt biomass biofilm of MRSA”.
